For 1 compound, IC50 results are on record in article PMC5845541, “Novel Sodium Channel Inhibitor From Leeches” (Frontiers in Pharmacology, 2018).

Positions of bridges follow the written chain, without caps; N, C: chain ends. Residues, ends and D or L forms follow the SMILES beside them.

The target in test [1] is rNaV1.8 (rat NaV1.8) (Rattus norvegicus, UniProt Q62968). Briefly: cell-based.
The target in test [2] is T1, mNaV1.9 (mouse NaV1.9) (Mus musculus, UniProt Q9R053).
T1 construct: Representative current traces of mNaV1.9, recorded from the NaV1.8-null mouse small DRG neurons; endogenous in cells; host or cells: small DRG neurons of NaV1.8-null mice
Briefly: cell-based. The note with it: NaV1.8-null mouse small DRG neurons, 300 nM TTX; 100-ms step to –40 mV from holding potential –110 mV; variable slope fit; room temperature; mean ± SEM; read-out: IC50 for inhibition of mNaV1.9 currents.

rNaV1.8 (rat NaV1.8), sequence (Q62968 whole entry): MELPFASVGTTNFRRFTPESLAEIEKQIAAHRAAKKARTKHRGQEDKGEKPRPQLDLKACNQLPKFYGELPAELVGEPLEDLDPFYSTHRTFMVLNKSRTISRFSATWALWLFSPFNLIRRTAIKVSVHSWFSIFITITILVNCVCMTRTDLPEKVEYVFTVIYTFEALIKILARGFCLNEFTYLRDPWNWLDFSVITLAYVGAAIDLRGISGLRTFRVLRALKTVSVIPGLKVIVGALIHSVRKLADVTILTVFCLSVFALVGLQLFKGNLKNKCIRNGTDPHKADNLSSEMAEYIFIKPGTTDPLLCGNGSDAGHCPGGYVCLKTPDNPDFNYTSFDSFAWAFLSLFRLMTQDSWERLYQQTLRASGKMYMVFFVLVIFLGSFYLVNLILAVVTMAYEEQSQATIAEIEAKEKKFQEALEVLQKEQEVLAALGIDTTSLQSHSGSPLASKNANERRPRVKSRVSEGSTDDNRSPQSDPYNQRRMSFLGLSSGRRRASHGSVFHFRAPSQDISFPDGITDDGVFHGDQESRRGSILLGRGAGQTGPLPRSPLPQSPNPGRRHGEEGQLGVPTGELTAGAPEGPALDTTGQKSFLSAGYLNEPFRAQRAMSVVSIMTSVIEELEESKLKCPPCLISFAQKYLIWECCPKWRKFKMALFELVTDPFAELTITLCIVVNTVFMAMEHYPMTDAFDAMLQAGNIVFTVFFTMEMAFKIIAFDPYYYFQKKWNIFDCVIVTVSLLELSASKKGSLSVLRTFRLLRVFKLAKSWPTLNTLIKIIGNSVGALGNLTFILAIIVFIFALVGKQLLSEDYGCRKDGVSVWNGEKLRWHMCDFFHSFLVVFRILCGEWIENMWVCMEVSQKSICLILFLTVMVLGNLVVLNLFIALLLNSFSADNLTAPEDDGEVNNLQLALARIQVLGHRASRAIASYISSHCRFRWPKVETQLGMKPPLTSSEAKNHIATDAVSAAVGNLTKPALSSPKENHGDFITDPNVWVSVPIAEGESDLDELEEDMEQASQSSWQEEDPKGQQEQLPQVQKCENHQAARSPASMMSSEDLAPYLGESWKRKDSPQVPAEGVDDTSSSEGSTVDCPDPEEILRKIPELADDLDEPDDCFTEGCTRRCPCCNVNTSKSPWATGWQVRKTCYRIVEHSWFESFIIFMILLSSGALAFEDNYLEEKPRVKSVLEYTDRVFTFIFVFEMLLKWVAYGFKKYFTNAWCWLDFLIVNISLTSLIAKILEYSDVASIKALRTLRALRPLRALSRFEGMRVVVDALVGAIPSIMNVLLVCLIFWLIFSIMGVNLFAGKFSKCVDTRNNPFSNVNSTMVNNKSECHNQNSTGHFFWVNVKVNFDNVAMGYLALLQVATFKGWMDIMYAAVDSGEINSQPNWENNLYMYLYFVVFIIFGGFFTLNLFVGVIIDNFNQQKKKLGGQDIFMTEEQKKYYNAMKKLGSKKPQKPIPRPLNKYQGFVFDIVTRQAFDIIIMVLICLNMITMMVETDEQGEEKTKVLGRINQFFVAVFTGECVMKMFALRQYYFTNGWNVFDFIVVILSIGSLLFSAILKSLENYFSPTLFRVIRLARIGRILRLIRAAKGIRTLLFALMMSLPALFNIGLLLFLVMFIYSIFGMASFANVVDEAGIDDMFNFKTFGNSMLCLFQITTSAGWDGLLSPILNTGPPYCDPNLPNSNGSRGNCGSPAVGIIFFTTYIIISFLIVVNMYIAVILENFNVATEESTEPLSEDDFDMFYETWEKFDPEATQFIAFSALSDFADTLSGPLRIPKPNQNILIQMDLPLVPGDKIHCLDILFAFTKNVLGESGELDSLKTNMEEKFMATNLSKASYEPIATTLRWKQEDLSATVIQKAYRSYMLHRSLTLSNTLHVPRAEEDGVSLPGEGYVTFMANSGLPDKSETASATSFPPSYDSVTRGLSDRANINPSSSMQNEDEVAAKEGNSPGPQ
T1 sequence (Q9R053 whole entry): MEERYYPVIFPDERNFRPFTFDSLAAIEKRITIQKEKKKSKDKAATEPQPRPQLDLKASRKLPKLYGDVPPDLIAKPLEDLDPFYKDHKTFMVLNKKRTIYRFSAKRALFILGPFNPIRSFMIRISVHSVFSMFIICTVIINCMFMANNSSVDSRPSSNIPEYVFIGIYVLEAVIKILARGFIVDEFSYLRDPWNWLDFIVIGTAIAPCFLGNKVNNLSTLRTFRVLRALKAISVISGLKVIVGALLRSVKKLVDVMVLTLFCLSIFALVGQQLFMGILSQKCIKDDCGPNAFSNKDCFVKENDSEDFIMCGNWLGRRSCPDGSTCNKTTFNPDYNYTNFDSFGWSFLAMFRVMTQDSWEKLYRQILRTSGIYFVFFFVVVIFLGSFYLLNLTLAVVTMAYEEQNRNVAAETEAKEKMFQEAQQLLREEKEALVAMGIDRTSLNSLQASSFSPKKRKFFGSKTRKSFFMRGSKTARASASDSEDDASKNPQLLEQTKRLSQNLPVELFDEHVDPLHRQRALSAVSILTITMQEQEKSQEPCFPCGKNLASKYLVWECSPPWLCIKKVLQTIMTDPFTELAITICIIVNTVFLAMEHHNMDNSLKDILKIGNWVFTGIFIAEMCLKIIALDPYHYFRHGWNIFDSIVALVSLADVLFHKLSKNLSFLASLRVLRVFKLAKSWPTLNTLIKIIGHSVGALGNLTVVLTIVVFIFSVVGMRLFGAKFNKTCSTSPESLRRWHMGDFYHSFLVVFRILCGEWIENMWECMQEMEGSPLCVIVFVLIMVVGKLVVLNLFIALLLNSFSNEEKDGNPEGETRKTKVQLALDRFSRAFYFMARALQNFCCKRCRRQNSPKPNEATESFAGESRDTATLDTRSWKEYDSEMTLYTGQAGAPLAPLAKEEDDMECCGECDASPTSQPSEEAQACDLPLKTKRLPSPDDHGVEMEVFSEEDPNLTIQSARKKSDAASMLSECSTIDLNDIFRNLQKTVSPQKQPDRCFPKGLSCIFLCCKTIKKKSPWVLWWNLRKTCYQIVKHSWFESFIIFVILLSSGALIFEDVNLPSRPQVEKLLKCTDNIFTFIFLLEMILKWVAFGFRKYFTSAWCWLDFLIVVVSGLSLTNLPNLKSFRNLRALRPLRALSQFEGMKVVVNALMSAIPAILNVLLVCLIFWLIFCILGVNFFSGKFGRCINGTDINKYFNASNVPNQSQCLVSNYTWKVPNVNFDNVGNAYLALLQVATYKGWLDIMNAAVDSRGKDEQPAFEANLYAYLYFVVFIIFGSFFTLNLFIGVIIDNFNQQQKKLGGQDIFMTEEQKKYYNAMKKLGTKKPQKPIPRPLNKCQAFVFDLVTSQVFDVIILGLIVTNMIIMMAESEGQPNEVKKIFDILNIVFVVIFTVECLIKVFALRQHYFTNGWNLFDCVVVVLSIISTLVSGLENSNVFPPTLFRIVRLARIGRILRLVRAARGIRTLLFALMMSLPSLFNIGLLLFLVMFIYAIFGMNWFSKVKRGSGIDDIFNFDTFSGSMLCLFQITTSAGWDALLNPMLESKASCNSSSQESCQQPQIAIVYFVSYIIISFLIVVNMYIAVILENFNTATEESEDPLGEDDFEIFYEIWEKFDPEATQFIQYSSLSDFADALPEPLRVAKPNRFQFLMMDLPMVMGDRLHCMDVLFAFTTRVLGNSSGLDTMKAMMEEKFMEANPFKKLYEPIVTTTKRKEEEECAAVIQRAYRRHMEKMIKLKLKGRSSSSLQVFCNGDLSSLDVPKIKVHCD

Regarding `CC[C@H](C)[C@H](NC(=O)[C@H](CCSC)NC(=O)[C@@H]1CCCN1C(=O)[C@@H](NC(=O)[C@@H]1CSSC[C@@H]2NC(=O)[C@H](CCC(=O)O)NC(=O)[C@H](Cc3c[nH]c4ccccc34)NC(=O)[C@H](Cc3ccc(O)cc3)NC(=O)[C@H](CCC(=O)O)NC(=O)[C@H](CCCCN)NC(=O)[C@@H](NC(=O)[C@H](C)N)CSSC[C@H](NC(=O)[C@H](Cc3ccccc3)NC(=O)[C@H](CC(C)C)NC(=O)[C@H](Cc3ccccc3)NC(=O)[C@H](C)NC(=O)CNC2=O)C(=O)N[C@@H]([C@@H](C)CC)C(=O)N[C@@H](CCC(=O)O)C(=O)NCC(=O)N[C@@H]([C@@H](C)CC)C(=O)N1)C(C)C)C(N)=O` [HSTX-I] (H-ACKEYWECGAFLFCIEGICVPMI-NH2; disulfide 2-14, 8-19), the IC50 – broadly, the point on the concentration scale where inhibition reaches its midpoint – in test [1] is around 2.44 µM; in test [2], around 3.3 µM.
